# Test results taken from patent US20060069132A1, “Azolecarboxamide herbicides” (priority 2004, published 2006).
# Columns and labels:
# velvetleaf = assay: Test B pre-/postemergence herbicide test; format: in vivo, Abutilon theophrasti; conditions: for Plant response rating (0 to 100 scale), Velvetleaf: 0 is no effect, preemergence
# How it was run: (§1)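 Response was scored visually 13 to 15 days after treatment against untreated greenhouse controls, 0 meaning no effect and 100 complete control. Formulations (solvent mixture plus surfactant) went onto soil after planting, onto foliage of 1- to 4-leaf plants, and onto 2-leaf plants in a flooded paddy set including rice and barnyardgrass.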
# morningglory = assay: Test B pre-/postemergence herbicide test; format: in vivo, Ipomoea coccinea; conditions: for Morningglory plant response rating: scale 0 (no effect) to 100 (complete control); for Plant response rating (0 to 100 scale), Morningglory: 0 is no effect, 100 is complete control
# How it was run: (§2)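 Formulation: non-phytotoxic solvent mix with surfactant. Timing: preemergence on seed and postemergence on 2–18 cm plants, applied concurrently. Readout after 13–15 d greenhouse: visual 0–100 control rating against controls.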
# [1] = tested on: small flower umbrella sedge; assay: Test B flooded paddy test; format: in vivo, Cyperus difformis; conditions: 1000 g ai/ha, scale 0 to 100 (0 no effect, 100 complete control)
# How it was run: (§3)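 Scale 0–100: zero equals no visible effect, 100 complete control, judged by eye relative to controls. Timing: 13 to 15 days in greenhouse post-treatment. Growth stage at spraying: two leaves (paddy) or one to four leaves, 2–18 cm (postemergence).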
# large crabgrass = assay: Test B pre-/postemergence herbicide test; format: in vivo, Digitaria sanguinalis; conditions: for Plant response rating (0 to 100 scale), Crabgrass, Large: 0 is no effect; for Crabgrass, Large plant response rating: postemergence
# How it was run: as §1
# blackgrass = assay: Test B postemergence herbicide test; format: in vivo, Alopecurus myosuroides; conditions: postemergence
# How it was run: as §3
# barnyardgrass [2] = assay: Test B pre-/postemergence herbicide test; format: in vivo, Echinochloa crus-galli; conditions: for Plant response rating (0 to 100 scale), Barnyardgrass: 0 is no effect; for Barnyardgrass plant response rating: postemergence
# How it was run: as §2
# pigweed = assay: Test B pre-/postemergence herbicide test; format: in vivo, Amaranthus retroflexus; conditions: for Plant response rating (0 to 100 scale), Pigweed: 0 is no effect, preemergence
# How it was run: as §1
# giant foxtail = assay: Test B pre-/postemergence herbicide test; format: in vivo, Setaria faberi; conditions: for Plant response rating (0 to 100 scale), Foxtail, Giant: 0 is no effect; for Foxtail, Giant plant response rating: postemergence
# How it was run: as §1
# wheat = assay: Test B postemergence herbicide test; format: in vivo, Triticum aestivum; design: key to Wheat plant response rating: 0 = no effect, 100 = complete control
# How it was run: (§4)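 Each value is a visual 0–100 response rating taken against controls 13 to 15 days after treatment in the greenhouse. Plants received formulated chemical postemergence at the 1- to 4-leaf stage or, in flooded paddy, at the 2-leaf stage.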
# cocklebur = assay: Test B pre-/postemergence herbicide test; format: in vivo, Xanthium strumarium; conditions: for Plant response rating (0 to 100 scale), Cocklebur: 0 is no effect; for Cocklebur plant response rating: postemergence
# How it was run: as §2
# ducksalad = assay: Test B flooded paddy test; format: in vivo, Heteranthera limosa; conditions: 1000 g ai/ha, scale 0 to 100 (0 no effect, 100 complete control)
# How it was run: as §3
# corn = assay: Test B pre-/postemergence herbicide test; format: in vivo, Zea mays; conditions: for Corn plant response rating: postemergence; for Plant response rating (0 to 100 scale), Corn: 0 is no effect, preemergence
# How it was run: as §1
# wild oat = assay: Test B postemergence herbicide test; format: in vivo, Avena fatua
# How it was run: as §4
# Surinam grass = assay: Test B pre-/postemergence herbicide test; format: in vivo, Urochloa decumbens; conditions: for Plant response rating (0 to 100 scale), Surinam Grass: 0 is no effect
# How it was run: as §1
# barnyardgrass [3] = assay: Test B flooded paddy test; format: in vivo, Echinochloa crus-galli; conditions: 1000 g ai/ha, scale 0 to 100 (0 no effect, 100 complete control)
# How it was run: as §3
# rice = assay: Test B flooded paddy test; format: in vivo, Oryza sativa; conditions: 1000 g ai/ha, scale 0 to 100 (0 no effect, 100 complete control)
# How it was run: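 Postemergence plants were sprayed with formulated test chemicals at 2 to 18 cm height (1- to 4-leaf stage); paddy species were grown to the 2-leaf stage. After 13 to 15 days in a greenhouse, injury was rated visually against untreated controls on a 0–100 scale (0 = no effect, 100 = complete control).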
# [4] = 125 g ai/ha, 100 is complete control
# [5] = 125 g ai/ha, visual rating, scale 0 (no effect) to 100 (complete control), postemergence
# [6] = postemergence, 500 g ai/ha, scale 0 to 100, 0 is no effect, 100 is complete control
# [7] = 125 g ai/ha, visual rating, postemergence
# [8] = 500 g ai/ha, visual rating, 0 = no effect, 100 = complete control, preemergence
# [9] = 125 g ai/ha, 100 is complete control, preemergence
# [10] = 125 g ai/ha, visual rating, scale 0 (no effect) to 100 (complete control)
# [11] = 500 g ai/ha, scale 0 to 100, 0 is no effect, 100 is complete control
# [12] = Postemergence, 500 g ai/ha, scale 0 (no effect) to 100 (complete control)
# [13] = 500 g ai/ha, scale 0 to 100, 0 no effect, 100 complete control, preemergence
Compound,"Plant response rating (0 to 100 scale), Velvetleaf (velvetleaf; [4])",Velvetleaf plant response rating (velvetleaf; [5]),Morningglory plant response rating (morningglory; [7]),"Sedge, Umbrella plant response rating [1]","Plant response rating (0 to 100 scale), Crabgrass, Large (large crabgrass; [9])","Crabgrass, Large plant response rating (large crabgrass; [10])","Crabgrass, Large plant response rating (large crabgrass; [11])",Blackgrass plant response rating (blackgrass; [10]),Blackgrass plant response rating (blackgrass; [11]),"Plant response rating (0 to 100 scale), Barnyardgrass (barnyardgrass [2]; [9])",Barnyardgrass plant response rating (barnyardgrass [2]; [10]),Barnyardgrass plant response rating (barnyardgrass [2]; [11]),"Plant response rating (0 to 100 scale), Pigweed (pigweed; [4])",Pigweed plant response rating (pigweed; [5]),"Plant response rating (0 to 100 scale), Foxtail, Giant (giant foxtail; [9])","Foxtail, Giant plant response rating (giant foxtail; [10])","Foxtail, Giant plant response rating (giant foxtail; [11])",Wheat plant response rating (wheat; [5]),"Plant response rating (0 to 100 scale), Cocklebur (cocklebur; [9])",Cocklebur plant response rating (cocklebur; [10]),further results
CCNC(=O)c1ccc(F)c(NC(=O)c2c3c(nn2CC)C(C)(C)CC3)c1 [Compound 353],10,20,10,90,20,10,10,10,40,40,10,10,0,30,0,20,30,0,0,10,"Velvetleaf plant response rating (velvetleaf; [6]): 20; Plant response rating, Morningglory (morningglory; [8]): 20; Plant response rating, Crabgrass, Large (large crabgrass; [8]): 80; Plant response rating, Barnyardgrass (barnyardgrass [2]; [8]): 90; Pigweed plant response rating (pigweed; [6]): 70; Plant response rating, Foxtail, Giant (giant foxtail; [8]): 50; Wheat plant response rating (wheat; [6]): 10; Plant response rating, Cocklebur (cocklebur; [8]): 20; Cocklebur plant response rating (cocklebur; [11]): 20; Ducksalad plant response rating (ducksalad): 80; Corn plant response rating (corn; [10]): 10; Corn plant response rating (corn; [11]): 20; Oat, Wild plant response rating (wild oat; [5]): 10; Oat, Wild plant response rating (wild oat; [6]): 40; Plant response rating (0 to 100 scale), Surinam Grass (Surinam grass; [9]): 0; Surinam Grass plant response rating (Surinam grass; [5]): 0; Plant response rating, Surinam Grass (Surinam grass; [8]): 30; Surinam Grass plant response rating (Surinam grass; [6]): 10; Barnyardgrass plant response rating (barnyardgrass [3]): 70; Rice plant response rating (rice): 40"
CCOC(=O)c1cccc(NC(=O)c2nn(C(C)(C)CC)nc2CC)c1 [Compound 375],30,70,20,80,20,20,40,30,40,20,30,70,70,40,50,40,70,30,0,30,"Velvetleaf plant response rating (velvetleaf; [12]): 90; Plant response rating (0 to 100 scale), Morningglory (morningglory; 125 g ai/ha, preemergence): 10; Morningglory plant response rating (morningglory; Postemergence, 500 g ai/ha): 40; Pigweed plant response rating (pigweed; [12]): 80; Wheat plant response rating (wheat; [13]): 30; Wheat plant response rating (wheat; [12]): 40; Cocklebur plant response rating (cocklebur; [11]): 60; Ducksalad plant response rating (ducksalad): 20; Plant response rating (0 to 100 scale), Corn (corn; [4]): 0; Corn plant response rating (corn; [10]): 20; Corn plant response rating (corn; [11]): 40; Oat, Wild plant response rating (wild oat; [5]): 40; Oat, Wild plant response rating (wild oat; [12]): 50; Plant response rating (0 to 100 scale), Surinam Grass (Surinam grass; [9]): 40; Surinam Grass plant response rating (Surinam grass; [5]): 20; Surinam Grass plant response rating (Surinam grass; [12]): 30; Barnyardgrass plant response rating (barnyardgrass [3]): 40; Rice plant response rating (rice): 40"
CCc1nn(C(C)(C)C)nc1C(=O)Nc1cccc(C(=O)N(C)CC)c1 [Compound 384],70,30,30,80,90,10,40,20,50,90,0,30,90,30,90,10,30,10,0,30,"Velvetleaf plant response rating (velvetleaf; [12]): 70; Plant response rating (0 to 100 scale), Morningglory (morningglory; 125 g ai/ha, preemergence): 10; Morningglory plant response rating (morningglory; Postemergence, 500 g ai/ha): 40; Pigweed plant response rating (pigweed; [12]): 70; Wheat plant response rating (wheat; [13]): 100; Wheat plant response rating (wheat; [12]): 20; Cocklebur plant response rating (cocklebur; [11]): 40; Ducksalad plant response rating (ducksalad): 80; Plant response rating (0 to 100 scale), Corn (corn; [4]): 80; Corn plant response rating (corn; [10]): 0; Corn plant response rating (corn; [11]): 10; Oat, Wild plant response rating (wild oat; [5]): 10; Oat, Wild plant response rating (wild oat; [12]): 30; Plant response rating (0 to 100 scale), Surinam Grass (Surinam grass; [9]): 100; Surinam Grass plant response rating (Surinam grass; [5]): 10; Surinam Grass plant response rating (Surinam grass; [12]): 60; Barnyardgrass plant response rating (barnyardgrass [3]): 90; Rice plant response rating (rice): 90"
